According to patent publication US4468385A, “Poly-cation salts of 4-O-poly-hexaose-thio-alkylene sulfate derivatives and method of use” (American Cyanamid Company, priority 1983, dated 1984):
Where “and” joins values, the source holds several entries; their conditions need not be identical. Equal values may be shown once. Where a name gives a salt, the structure may show the parent alone.

What was measured:
activated human C1 = activated human C1 (Homo sapiens, UniProt P09871); assay: Test Code 026 (C1 inhibitor): protection of fluid phase human C2 from activated human C1 in the presence of C4; assay type: biochemical; settings: serial twofold dilution assay; higher well number indicates higher activity
complement system = settings: literature report; cited from earlier work
[1] = system: hereditary angioneurotic edema; settings: literature report; cited from earlier work
[2] = system: total hemolytic complement activity; settings: in vitro and in vivo, judged by reduction in total hemolytic complement activity; cited from earlier work

Q: For `N[C@@H](CS[C@@H]1O[C@H](COS(=O)(=O)O)[C@@H](O[C@H]2O[C@H](COS(=O)(=O)O)[C@@H](OS(=O)(=O)O)[C@H](OS(=O)(=O)O)[C@H]2OS(=O)(=O)O)[C@H](OS(=O)(=O)O)[C@H]1OS(=O)(=O)O)C(=O)O` [4-[2,3,6-Tri-O-sulfo-4-O-(2,3,4,6-tetra-O-sulfo-α-D-glucopyranosyl)-β-D-glucopyranosyl]-L-cysteine heptasodium salt], which “In vitro Activity Cl 026 Wells” value (activated human C1) is on record?
A: Its value is 1 Wells.

Q: For `Nc1ccc2cc(S(=O)(=O)[O-])cc(O)c2c1N=Nc1ccc(NC(=O)Nc2ccc(N=Nc3c(N)ccc4cc(S(=O)(=O)[O-])cc(O)c34)c(S(=O)(=O)[O-])c2)cc1S(=O)(=O)[O-].[Na+].[Na+].[Na+].[Na+]` [chlorazol fast pink, 3,3'-ureylenebis[6-(2-amino-8-hydroxy-6-sulfo-1-naphthylazo)benzenesulfonic acid], tetrasodium salt], which anticomplementary effect (complement system) is on record?
A: Its anticomplementary effect is “anticomplementary effect”.

Q: For `NCCCCCC(=O)O` [epsilon-aminocaproic acid], which “treatment of hereditary angioneurotic edema” value [1] is on record?
A: Its value is “used with success”.

Q: With `CC(=O)NC(CCS[C@@H]1O[C@H](COS(=O)(=O)O)[C@@H](O[C@H]2O[C@H](COS(=O)(=O)O)[C@@H](OS(=O)(=O)O)[C@H](OS(=O)(=O)O)[C@H]2OS(=O)(=O)O)[C@H](OS(=O)(=O)O)[C@H]1OS(=O)(=O)O)C(=O)O` (stereo partly drawn) [4-[2,3,6-Tri-O-sulfo-4-O-(2,3,4,6-tetra-O-sulfo-α-D-glucopyranosyl)-β-D-glucopyranosyl]-2-acetamido-4-mercaptobutyric acid heptasodium salt] as the compound, how does the “In vitro Activity Cl 026 Wells” value (activated human C1) read?
A: Its value is 6 Wells.

Q: For `O=S(=O)(O)OC[C@H]1O[C@H](O[C@H]2[C@H](O)[C@@H](OS(=O)(=O)O)[C@H](SCC(S)CO)O[C@@H]2COS(=O)(=O)O)[C@H](OS(=O)(=O)O)[C@@H](O)[C@@H]1O` (stereo partly drawn) [3-Hydroxy-2-mercaptopropyl 4-O-α-D-glucopyranosyl-1-thio-β-D-glucopyranoside-tetrakis-(H-sulfate) tetrasodium salt], which “In vitro Activity Cl 026 Wells” value (activated human C1) is on record?
A: The value was 6 Wells and 9 Wells.

Q: With `NC[C@H]1CC[C@H](C(=O)O)CC1` [tranexamic acid] as the compound, how does the “treatment of hereditary angioneurotic edema” value [1] read?
A: The value was “used with success”.

Q: For pentosan- polysulfoester, which “anticomplementary activity on human serum” value [2] is on record?
A: Its value is “anticomplementary activity”.

Q: Which “In vitro Activity Cl 026 Wells” value (activated human C1) does the source give for `O=S(=O)([O-])OC[C@H]1O[C@@H](SCC(O)C(O)CS)[C@H](OS(=O)(=O)[O-])[C@@H](OS(=O)(=O)[O-])[C@@H]1O[C@H]1O[C@H](COS(=O)(=O)[O-])[C@@H](OS(=O)(=O)[O-])[C@H](OS(=O)(=O)[O-])[C@H]1OS(=O)(=O)[O-].[Na+].[Na+].[Na+].[Na+].[Na+].[Na+].[Na+]` (stereo partly drawn) [2,3-Dihydroxy-4-mercaptobutyl 2,3,6-tri-O-sulfo-4-O-(2,3,4,6-tetra-O-sulfo-α-D-glucopyranosyl)-1-thio-β-D-glucopyranoside heptasodium salt] here?
A: Its value is 12 Wells.

Q: For heparin, which anticomplementary effect (complement system) is on record?
A: Its anticomplementary effect is “anticomplementary effect”.
